Measured values: patent US20120121591A1 (priority 2009, published 2012)
Like-named read-outs stand apart in the source and are kept apart here.

Key:
Format in all cases: cell-based
hKv1.3 = hKv1.3 (Homo sapiens, UniProt P22001); assay: cell-based; conditions: Kv1.3 (IWQ) IC50 (nM, Avg)
[1] = system: IL-2 secretion from T cells in human whole blood; conditions: read-out: WB (IL-2) IC50 (nM, Avg)
[2] = system: IFN-g secretion from T cells in human whole blood
[3] = read-out: WB (IFNg) IC50 (nM, Avg)

Chain of hKv1.3 (P22001 whole entry): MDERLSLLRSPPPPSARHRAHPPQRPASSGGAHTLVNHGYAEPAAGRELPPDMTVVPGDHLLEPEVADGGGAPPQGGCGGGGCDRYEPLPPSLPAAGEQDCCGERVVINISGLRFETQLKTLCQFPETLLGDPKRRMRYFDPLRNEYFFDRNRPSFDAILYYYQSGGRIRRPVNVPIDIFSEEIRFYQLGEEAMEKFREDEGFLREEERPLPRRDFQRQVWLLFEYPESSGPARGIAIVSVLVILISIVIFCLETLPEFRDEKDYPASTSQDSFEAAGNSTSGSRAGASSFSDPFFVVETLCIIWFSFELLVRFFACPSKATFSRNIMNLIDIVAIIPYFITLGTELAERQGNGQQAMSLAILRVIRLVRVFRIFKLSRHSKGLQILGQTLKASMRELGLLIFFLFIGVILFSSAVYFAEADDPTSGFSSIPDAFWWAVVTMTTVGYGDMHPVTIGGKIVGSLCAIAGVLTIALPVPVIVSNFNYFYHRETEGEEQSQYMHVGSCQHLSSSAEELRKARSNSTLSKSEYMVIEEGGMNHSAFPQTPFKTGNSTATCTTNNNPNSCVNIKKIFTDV

| Compound | IC50 (hKv1.3) | IC50 [1] | IC50 [2, 3] | IC50 ([2]; read-out: WB (IFNg) IC5- (nM, Avg)) |
| --- | --- | --- | --- | --- |
| CCC[C@@H]1NC(=O)[C@H](CO)NC(=O)[C@H](Cc2c[nH]cn2)NC(=O)[C@H](CCCCN)NC(=O)[C@@H]2CSSC[C@@H]3NC(=O)[C@H]([C@@H](C)O)NC(=O)[C@H](CCCCN)NC(=O)[C@H](CCCNC(=N)N)NC(=O)[C@H](CSSC[C@H](NC(=O)[C@H](CCCNC(=N)N)NC(=O)[C@H](CO)NC(=O)[C@H](CCCCN)NC(=O)[C@@H]4CCCN4C(=O)[C@H]([C@@H](C)CC)NC(=O)[C@H]([C@@H](C)O)NC(=O)[C@H](CC(=O)O)NC(=O)[C@H]([C@@H](C)CC)NC(=O)[C@@H](NC(=O)[C@H](CO)NC(=O)[C@@H](N)CCCNC(=N)N)CSSC[C@@H](C(=O)N[C@@H](C)C(=O)O)NC(=O)[C@H]([C@@H](C)O)NC(=O)CNC3=O)C(=O)N[C@@H]([C@@H](C)O)C(=O)N[C@@H](C)C(=O)N[C@@H](Cc3ccccc3)C(=O)N[C@@H](CCCCN)C(=O)N2)NC(=O)[C@H](Cc2ccccc2)NC(=O)[C@H](CO)NC(=O)[C@H](CC(C)C)NC(=O)[C@H](CCCNC(=N)N)NC(=O)[C@H](Cc2ccc(O)cc2)NC(=O)[C@H](CCCCN)NC1=O [[Lys16,Nva21]ShK-Ala] | 13.5 nM | 0.164 nM | 0.307 nM | – |
| CC[C@H](C)[C@@H]1NC(=O)[C@@H](NC(=O)[C@H](CO)NC(=O)[C@@H](N)CCCNC(=N)N)CSSC[C@@H](C(=O)O)NC(=O)[C@H]([C@@H](C)O)NC(=O)CNC(=O)[C@@H]2CSSC[C@@H]3NC(=O)[C@H](CCC(N)=O)NC(=O)[C@H](Cc4ccccc4)NC(=O)[C@H](C)NC(=O)[C@H]([C@@H](C)O)NC(=O)[C@H](CSSC[C@H](NC(=O)[C@H](Cc4ccccc4)NC(=O)[C@H](CO)NC(=O)[C@H](CC(C)C)NC(=O)[C@H](CCCNC(=N)N)NC(=O)[C@H](Cc4ccc(O)cc4)NC(=O)[C@H](CCCCN)NC(=O)[C@H](CCSC)NC(=O)[C@H](CO)NC(=O)[C@H](CCCCN)NC(=O)[C@H](CCCCN)NC3=O)C(=O)N[C@@H](CCCNC(=N)N)C(=O)N[C@@H](CCCCN)C(=O)N[C@@H]([C@@H](C)O)C(=O)N2)NC(=O)[C@H](CCCNC(=N)N)NC(=O)[C@H](CO)NC(=O)[C@H](CCCCN)NC(=O)[C@@H]2CCCN2C(=O)[C@H]([C@@H](C)CC)NC(=O)[C@H]([C@@H](C)O)NC(=O)[C@H](CC(=O)O)NC1=O [[Lys19]ShK] | 0.189 nM | 0.041 nM | 0.089 nM | – |
| CC[C@H](C)[C@@H]1NC(=O)[C@@H](NC(=O)[C@H](CO)NC(=O)[C@@H](N)Cc2cccc3ccccc23)CSSC[C@@H](C(=O)O)NC(=O)[C@H]([C@@H](C)O)NC(=O)CNC(=O)[C@@H]2CSSC[C@@H]3NC(=O)[C@H](CCC(N)=O)NC(=O)[C@H](Cc4ccccc4)NC(=O)[C@H](C)NC(=O)[C@H]([C@@H](C)O)NC(=O)[C@H](CSSC[C@H](NC(=O)[C@H](Cc4ccccc4)NC(=O)[C@H](CO)NC(=O)[C@H](CC(C)C)NC(=O)[C@H](CCCNC(=N)N)NC(=O)[C@H](Cc4ccc(O)cc4)NC(=O)[C@H](CCCCN)NC(=O)[C@H](CCSC)NC(=O)[C@H](CO)NC(=O)[C@H](Cc4c[nH]cn4)NC(=O)[C@H](CCCCN)NC3=O)C(=O)N[C@@H](CCCNC(=N)N)C(=O)N[C@@H](CCCCN)C(=O)N[C@@H]([C@@H](C)O)C(=O)N2)NC(=O)[C@H](CCCNC(=N)N)NC(=O)[C@H](CO)NC(=O)[C@H](CCCCN)NC(=O)[C@@H]2CCCN2C(=O)[C@H]([C@@H](C)CC)NC(=O)[C@H]([C@@H](C)O)NC(=O)[C@H](CC(=O)O)NC1=O [[1-Nal1]ShK] | 0.225 nM | 0.222 nM | 0.247 nM | – |
| CC[C@H](C)[C@@H]1NC(=O)[C@@H](NC(=O)[C@H](CO)NC(=O)[C@@H](N)CCCNC(=N)N)CSSC[C@@H](C(=O)O)NC(=O)[C@H]([C@@H](C)O)NC(=O)CNC(=O)[C@@H]2CSSC[C@@H]3NC(=O)[C@H](CCC(N)=O)NC(=O)[C@H](Cc4ccccc4)NC(=O)[C@H](C)NC(=O)[C@H]([C@@H](C)O)NC(=O)[C@H](CSSC[C@H](NC(=O)[C@H](Cc4ccccc4)NC(=O)[C@H](CO)NC(=O)[C@H](CC(C)C)NC(=O)[C@H](CCCNC(=N)N)NC(=O)[C@H](Cc4ccc(O)cc4)NC(=O)[C@H](CCCCN)NC(=O)[C@H](CCSC)NC(=O)[C@H](CO)NC(=O)[C@H](Cc4c[nH]cn4)NC(=O)[C@H](CCCCN)NC3=O)C(=O)N[C@@H](CCCNC(=N)N)C(=O)N[C@@H](CCCCN)C(=O)N[C@@H]([C@@H](C)O)C(=O)N2)NC(=O)[C@H](CCCNC(=N)N)NC(=O)[C@H](CCC(=O)O)NC(=O)[C@H](CCCCN)NC(=O)[C@@H]2CCCN2C(=O)[C@H]([C@@H](C)CC)NC(=O)[C@H]([C@@H](C)O)NC(=O)[C@H](CC(=O)O)NC1=O [[Glu10]ShK] | 0.134 nM | 0.023 nM | – | 0.055 nM |
| CCCC[C@@H]1NC(=O)[C@H](CO)NC(=O)[C@H](Cc2c[nH]cn2)NC(=O)[C@H](CCCCN)NC(=O)[C@@H]2CSSC[C@@H]3NC(=O)[C@H]([C@@H](C)O)NC(=O)[C@H](CCCCN)NC(=O)[C@H](CCCNC(=N)N)NC(=O)[C@H](CSSC[C@H](NC(=O)[C@H](CCCNC(=N)N)NC(=O)[C@H](CO)NC(=O)[C@H](CCCCN)NC(=O)[C@@H]4CCCN4C(=O)[C@H]([C@@H](C)CC)NC(=O)[C@H]([C@@H](C)O)NC(=O)[C@H](CC(=O)O)NC(=O)[C@H](CCC(=O)O)NC(=O)[C@@H](NC(=O)[C@H](CO)NC(=O)[C@@H](N)CCCNC(=N)N)CSSC[C@@H](C(N)=O)NC(=O)[C@H]([C@@H](C)O)NC(=O)CNC3=O)C(=O)N[C@@H]([C@@H](C)O)C(=O)N[C@@H](C)C(=O)N[C@@H](Cc3ccccc3)C(=O)N[C@@H](CCCCN)C(=O)N2)NC(=O)[C@H](Cc2ccccc2)NC(=O)[C@H](CO)NC(=O)[C@H](CC(C)C)NC(=O)[C@H](CCCNC(=N)N)NC(=O)[C@H](Cc2ccc(O)cc2)NC(=O)[C@H](CCCCN)NC1=O [[Glu4, Lys16,Nle21]ShK-amide] | 0.149 nM | 0.57 nM | 0.965 nM | – |
| CCCC[C@@H]1NC(=O)[C@H](CO)NC(=O)[C@H](Cc2c[nH]cn2)NC(=O)[C@H](CCCCN)NC(=O)[C@@H]2CSSC[C@@H]3NC(=O)[C@H]([C@@H](C)O)NC(=O)[C@H](C)NC(=O)[C@H](CCCCN)NC(=O)[C@H](CSSC[C@H](NC(=O)[C@H](CCCNC(=N)N)NC(=O)[C@H](CO)NC(=O)[C@H](CCCCN)NC(=O)[C@@H]4CCCN4C(=O)[C@H]([C@@H](C)CC)NC(=O)[C@H]([C@@H](C)O)NC(=O)[C@H](CC(=O)O)NC(=O)[C@H]([C@@H](C)CC)NC(=O)[C@@H](NC(=O)[C@H](CO)NC(=O)[C@@H](N)CCCNC(=N)N)CSSC[C@@H](C(N)=O)NC(=O)[C@H]([C@@H](C)O)NC(=O)CNC3=O)C(=O)N[C@@H]([C@@H](C)O)C(=O)N[C@@H](C)C(=O)N[C@@H](Cc3ccccc3)C(=O)N[C@@H](CCCCN)C(=O)N2)NC(=O)[C@H](Cc2ccccc2)NC(=O)[C@H](CO)NC(=O)[C@H](CC(C)C)NC(=O)[C@H](CCCNC(=N)N)NC(=O)[C@H](Cc2ccc(O)cc2)NC(=O)[C@H](CCCCN)NC1=O [[Lys16, 29; Ala30,Nle21]ShK-amide] | 0.057 nM | 0.791 nM | 1.7 nM | – |
